{"source": "patent US9657305B2", "about": "“Synthesis of sialic acid in plants” (Medicago, Inc., priority 2006, dated 2017)", "key": {"tobacco BY2 cells [1]": {"system": "tobacco BY2 cells", "test": "Toxicity of Neu5Ac on tobacco BY2 cells (cell viability, propidium iodide and fluorescein diacetate)", "assay_type": "cell-based, Nicotiana tabacum", "details": "10 mM Neu5Ac, 48 h period"}, "tobacco BY2 cells [2]": {"system": "tobacco BY2 cells", "test": "In planta activity of Neu5Ac lyase: feeding transformed tobacco BY2 cells with Neu5Ac, GC of cytosolic monosaccharides", "assay_type": "cell-based, Nicotiana tabacum", "details": "BY2 cells fed 10 mM Neu5Ac, 48 h", "protocol": "After 2 d, BY2 cells were washed with BY2 medium without Neu5Ac or ManNAc and harvested. The cells were heated at 70° C. for 15 min in 70% ethanol to inactivate enzymes and then ground in a potter homogenizer. The homogenate was washed two times with 70% ethanol at 70° C. The remaining pellet and the supernatant were considered as representatives of the cell walls and the cytosolic free monosaccharides respectively. Monosaccharides of the supernatant fraction were then analysed by gas chromatography\nThe formation of D-ManNAc was determined by analysing cytosolic monosaccharides by GC after a 48 h period at temperature ranging from 23° C. to 37° C."}, "[3]": {"test": "Stability of the recombinant enzymes expressed in the plant cytosol", "details": "tobacco BY2 cells, alfalfa plants or transient expression", "text": "The synthesis of Neu5Ac in presence of pyruvate and ManNAc was also observed."}, "[4]": {"test": "Synthase activity of recombinant Neu5Ac lyase (formation of Neu5Ac from D-ManNAc and pyruvate, GC-EI MS)", "assay_type": "biochemical", "details": "pH 7, […]° C.", "experimental": "Soluble enzyme activities were assayed by incubating cell extracts with PEP 4 mM, NADH 4 mM, NaHCO3 20 mM and DTE 10 mM. Oxydation of NADH was measured by a diminution of absorbance at 340 nm after 10 min. […] Cells extracts were incubated 2 h at 37° C. in Solution B (100 mM Tris-HCl buffer, pH=7.4 and 10 mM MgCl2) containing proteinase inhibitors (pepstatine 1 μg·mL^−1, E64 1 μg·mL^1 and PMSF 1 mM) and Neu5Ac 40 mM. […] Cells extracts were incubated 2 h at 37° C. in Solution B (100 mM […], pH=7.4 and 10 mM MgCl2) containing proteinase inhibitors (pepstatine 1 μg·mL^−1, E64 1 μg·mL^1 and PMSF 1 mM) and ManNAc 20 mM and pyruvate 40 mM. Synthase activity of NeuB2 was assayed by measuring the formation of Neu5Ac after incubating transformants cells extracts with ManNAc and PEP. Cells extracts were incubated 2 h at 37° C. in Solution B (100 mM Tris-HCl buffer, pH=7.4 and 10 mM MgCl2) containing proteinase inhibitors (pepstatine 1 μg·mL^−1, E64 1 μg·mL^−1 and PMSF 1 mM) and ManNAc 10 mM and PEP 10 mM. […]\nFor the enzymatic assays, the reaction mixtures were first submitted to a purification step on C18 Seppack cartridges. […] The quantification of sugar was done by integration of peaks and determination of the corresponding molar values using response factors established with standard monosaccharides. […]"}}, "data": [{"molecule": "CC(=O)N[C@H]1[C@H]([C@H](O)[C@H](O)CO)OC(O)(C(=O)O)C[C@@H]1O", "note": "(stereo partly shown) [Neu5Ac, N-acetyl neuraminic acid]", "values": [{"measurement": "toxicity of Neu5Ac on tobacco BY2 cells (cell viability)", "setting": "tobacco BY2 cells [1]", "value": "no toxic effects were observed"}]}, {"molecule": "Neu5Ac lyase: Neu5Ac lyase from Escherichia coli K1 (accession number D00067) expressed in tobacco BY2 cells", "values": [{"measurement": "increase in D-ManNAc content at 37° C. compared to 23° C.", "setting": "tobacco BY2 cells [2]", "value": 25, "unit": "fold"}, {"measurement": "degradation of recombinant protein in the cytosol", "setting": "[3]", "value": "No degradation"}, {"measurement": "ability to synthesise Neu5Ac", "setting": "[4]", "value": "able to synthesise Neu5Ac"}]}]}
